The values that follow come from US7709443B2, “Cyclic peptide antitumor agents” (Northwestern University, priority 2003, dated 2010).

SMILES strings stand for the structures. Converted amounts (≈) assume the structure as drawn. Where two headings read alike, the source gives them in different places. Square brackets hold non-standard residues; d marks the D form. Peptide text beside a SMILES is read from it. Phe(4-Br) = N[C@@H](Cc1ccc(Br)cc1)C(=O)O; NMeF = CN[C@@H](Cc1ccccc1)C(=O)O; NMeL = CN[C@@H](CC(C)C)C(=O)O; NMeV = CN[C@H](C(=O)O)C(C)C; Aib = CC(C)(N)C(=O)O

The test system of data set [1] is PC-3 (Prostate) human cancer cell line. As to conditions: three days.
Experimental: (§4) Cells were plated at 5,000 cells per well in 24-well plates, treated for three days, then counted. Cell number was normalized to the number of cells in untreated control (DMSO) cells, also after three days.
The subject of data set [2] is MDA-MB231 (Breast) human cancer cell line. The conditions noted are these: three days.
Experimental: as §4
For data set [3], the system named is WM115 (Melanoma) human cancer cell line. As to conditions: three days.
Experimental: as §4
The subject of data set [4] is S2-013 cell line. The data set is described as follows: Cell proliferation assay (Guava ViaCount cell number), S2-013. It is filed as cell-based, human. The conditions noted are these: S2-013, 10 μM, 72 hours, vs vehicle (DMSO). Here is the method:
(§1) Given the results of the preceding example, several compounds of this invention were tested against human pancreatic cancer cell lines. Two cancer cell lines were selected: S2-013 (well-differentiated) and AsPC-1 (poorly differentiated). These cell lines were purchased from American Type Culture Collection (Manassas, Va.). Both cell lines were grown in DMEM and plated as monolayers in the medium supplemented with 10% fetal bovine serum in a humidified atmosphere of […] and 5% CO2 at 37° C. The cells were regularly seeded into 75 cm^2 flasks with media changes every second or third day. For experiments, cells were grown to 70% confluence, digested with trypsin-EDTA, and plated in either 6-, 24-, or 48-well plates.
(§2) Cell Proliferation Assay. Cells were regularly seeded into three 6-well plates and incubated at 37° C. for 24 hours. Cells were then cultured in serum-free medium for another 24 hours and treated in fresh serum-free medium with or without 10 μM of cyclic peptide 1k for 24, 48, and 72 hours. At the end of each time period, the cells were trypsinized to produce a single cell suspension, and the cell number in each well was determined using Guava Technologies=ViaCount Assay (Guava Technologies Inc, Hayward, Calif.).
(§3) Statistical Analysis. Data were analyzed by ANOVA with Dunnett's or Bonferoni's corrections for multiple comparisons, as appropriate. This analysis was performed with the Prism software package (GraphPad, San Diego, Calif.). Data were expressed as mean±SEM.

Data set [5] relates to AsPC-1 cells. The experiment in a line: Cell proliferation assay (Guava ViaCount cell number), AsPC-1. It is filed as cell-based, human. As to conditions: AsPC-1, 10 μM, 72 hours, vs vehicle (DMSO). Here is the method: as §1, §2, §3
Data set [6] concerns HCT-116 (human colon carcinoma). The data set is described as follows: cells. The source says:
The HCT-116 human colon adenocarcinoma screen is a tissue culture first line assay to detect inherent cytotoxicity against malignant cancer cells. This strain is considered to be an “indicator strain” by many for the selection of inhibitors that target solid tumors. The assay is a calorimetric endpoint assay which can be produced in 96-well format trays. Data are acquired by plate reader and dose response curves are produced by computer analysis. […] This assay is run routinely as described below and would be understood in the art.
1. Media (1000 mL McCoy's 5A Medium, 114 mL Fetal Bovine Serum, 25 mL Hepes buffer solution (IM), 12.5 mL Penicillin-Streptomycin solution)
2. Cell line (HCT-116, human colon cancer cell line)
3. Indicator (MTS and PMS in DPBS)
5. Standard anticancer drug (etoposide (VP-16); stock is 4 mg/mL in DMSO
6. DPBS (without CaCl2 and MgCl2)
1. Remove medium from the cells and rinse with 10 mL sterile DPBS.
3. Allow to stand in hood for 1 minute.
4. Remove trypsin with sterile pipette.
5. Allow flask to stand in hood for 2-5 minutes.
6. Add 10 mL of media to flask and pipette up and down to gently break up cell clumps.
7. Count the number of cells using a hemacytometer.
8. Determine # of plates needed, and total volume of cell suspension (16 or 18 mL per plate).
9. Dilute cells to a final concentration of 2.5×10^4 cells/mL in a sterile flask.
10. Pour cell suspension into a sterile trough.
For Serial Dilution Plates
1. Add 175 μL to each well in the first row of a 96 well plate.
2. Add 150 μL to the rest of the wells in A1-A10 & A12.
3. In row 11 add 150 μL cell suspension to the first 6 wells and only media to the last two.
For Single Concentration Plates
1. Add 150 μL of sterile media to G11 & H11.
2. Add 150 μL of cell suspension to all other wells.
3. Add 25 μL more to well H1.
Incubate plates overnight at 37° C. & 5% CO2
1. Add 25 μL of test compounds @ 10 mg/mL to A1-A10, 25 μL of DMSO to A11 & 25 μL of etoposide (4 mg/mL) to A12.
2. Using a twelve channel pipette, mix well then remove 50 μL from the first row and transfer to the next row, repeat down the plate until row F, then remove tip # 11 and continue down plate discarding the last 50 μL.
3. Incubate plates for 72 h.
1. Add 20 μL of MTS/PMS solution to each well.
3. Read plates @490 nm on plate reader.

For the compound `CC(C)C[C@@H]1NC(=O)[C@H](Cc2ccccc2)NC(=O)[C@H](CC(C)C)NC(=O)[C@H](C(C)C)N(C)C(=O)[C@H](CC(C)C)NC1=O` [Compound 1f] (cyclo(FLL[NMeV]L)), the “Fold Induction Over DMSO control” value was found to be 0.92 in data set [1] (PC-3, 1 μM); 0.74 in data set [1] (PC-3, 10 μM); 1.04 in data set [2] (MDA-MB231, 1 μM); 0.26 in data set [2] (MDA-MB231, 10 μM); 1.00 in data set [3] (WM115, 1 μM); 1.06 in data set [3] (WM115, 10 μM).

As for `CC(C)C[C@@H]1NC(=O)[C@H](Cc2ccc(Br)cc2)NC(=O)[C@H](CC(C)C)NC(=O)[C@H](C(C)C)N(C)C(=O)[C@H](CC(C)C)NC1=O` [Compound 1g] (cyclo([Phe(4-Br)]LL[NMeV]L)), the “Fold Induction Over DMSO control” value in data set [1] (PC-3, 1 μM) is reported as 0.74; in data set [1] (PC-3, 10 μM), 0.67; in data set [2] (MDA-MB231, 1 μM) it was 0.88; in data set [2] (MDA-MB231, 10 μM), 0.31; in data set [3] (WM115, 1 μM), 1.02; in data set [3] (WM115, 10 μM) it was 0.84.

`CC(C)C[C@@H]1NC(=O)[C@H](Cc2ccccc2)NC(=O)[C@H](CC(C)C)N(C)C(=O)[C@H](C(C)C)NC(=O)[C@H](CC(C)C)NC1=O` [Compound 1h] (cyclo(FLLV[NMeL])): the “Fold Induction Over DMSO control” value in data set [1] (PC-3, 1 μM) is on record as 0.79; in data set [1] (PC-3, 10 μM), 0.64; in data set [2] (MDA-MB231, 1 μM) it was 1.01; in data set [2] (MDA-MB231, 10 μM), 0.28; in data set [3] (WM115, 1 μM), 1.13; in data set [3] (WM115, 10 μM), 0.51.

Take `CC(C)C[C@@H]1NC(=O)[C@H](CC(C)C)NC(=O)[C@H](Cc2ccccc2)N(C)C(=O)[C@H](CC(C)C)NC(=O)[C@H](C(C)C)NC1=O` [Compound 1j] (cyclo([NMeF]LLVL)): the “Fold Induction Over DMSO control” value is recorded as 0.86 in data set [1] (PC-3, 1 μM); 0.8 in data set [1] (PC-3, 10 μM); 0.78 in data set [2] (MDA-MB231, 1 μM); 0.82 in data set [2] (MDA-MB231, 10 μM); 1.75 in data set [3] (WM115, 1 μM); 0.60 in data set [3] (WM115, 10 μM).

Take `CC(C)C[C@@H]1NC(=O)[C@H](Cc2ccccc2)NC(=O)[C@H](Cc2ccccc2)N(C)C(=O)[C@H](Cc2ccccc2)NC(=O)C(C)(C)NC(=O)[C@H](CC(C)C)N(C)C(=O)[C@@H]2CCCN2C1=O` [Scytalidamide A, reference compound] (cyclo(F[NMeF]FLP[NMeL][Aib])): the “Fold Induction Over DMSO control” value in data set [1] (PC-3, 1 μM) came out at 0.63; in data set [1] (PC-3, 10 μM), 0.15; in data set [2] (MDA-MB231, 1 μM) it was 2.75; in data set [2] (MDA-MB231, 10 μM) it was 0.11; in data set [3] (WM115, 1 μM), 1.01; in data set [3] (WM115, 10 μM) it was 0.07. Further, the figures for the “change in number of cells” value in data set [4] and in data set [5] were “exception” and “significant (p<0.05) decrease”, respectively.

In the case of `CC(C)C[C@@H]1NC(=O)[C@H](C(C)C)NC(=O)[C@H](CC(C)C)N(C)C(=O)[C@H](CC(C)C)NC(=O)[C@H](Cc2ccc(Br)cc2)NC1=O` [drawing 9] (cyclo([Phe(4-Br)]L[NMeL]VL)), the IC50 (usually the concentration needed to halve the response being measured) in data set [6] (HCT-116 bioassay, Table 1) was determined as 0.11 µg/mL (≈ 0.162 µM). For the same compound, the “times more potent than sansalvamide A toward HCT-116” value in data set [6] (relative to sansalvamide A) is given as about 100 times.

`COc1cc([C@@H]2c3cc4c(cc3[C@@H](O[C@@H]3O[C@@H]5CO[C@@H](C)O[C@H]5[C@H](O)[C@H]3O)[C@H]3COC(=O)[C@H]23)OCO4)cc(OC)c1O` [etoposide, reference compound]: the IC50 in data set [6] (Homo sapiens, HCT-116) amounted to 1.5 µg/mL (≈ 2.55 µM).
